Measurements taken from patent US20250091994A1, “RAS/RAF BINDING INHIBITOR COMPOUND” (NATIONAL UNIVERSITY CORPORATION KOBE UNIVERSITY, priority 2021, published 2025).
Read-outs that look alike come from different tables or passages of the source.

Experiments:
[1] = tested on: acute lymphoblastic leukemia cells CCRF-CEM (K-RasG12D); experiment: Cell growth inhibition, suspension cells CCRF-CEM; format: cell-based; conditions: Homo sapiens, 72 hours; for inhibition at 1 µM: read-out: CCRF-CEM (KRasG12D) % inhibition at 1 μM; for inhibition at 10 µM: read-out: CCRF-CEM (KRasG12D) % inhibition at 10 μM (**); for inhibition at 3.2 µM: read-out: CCRF-CEM (KRasG12D) % inhibition at 3.2 μM (***)
Protocol: (§1) The cell growth inhibitory activity of the compound of the present invention on human culture cells having active-type mutation in Ras was evaluated by the below-mentioned method using suspension cancer cells {acute lymphoblastic leukemia cells CCRF-CEM (K-RasG12D), promyelocytic leukemia cells HL60 (N-RasQ61L), acute lymphoblastic leukemia cells MOLT4 (N-RasG12C), and small cell lung cancer cells SHP77 (K-RasG12V)} and adherent cancer cells {large bowel cancer cells SW480 (K-RasG12V) and large bowel cancer cell SW620 (K-RasG12V)}.
(§2) (Case of suspension cells) The cells suspended in a medium containing 0.5% (v/v) fetal bovine serum (FBS) and each compound solution (final DMSO concentration: 1%) were seeded on a 96-well plate (2 to 4×10^4 cells/well), and the resulting mixture was then cultured at 37° C. in the presence of 5% CO2 for 72 hours.
(§3) Thereafter, the number of viable cells was measured using Cell Counting Reagent (Nacalai Tesque) in accordance with the manufacturer's instructions. Inhibition by the test compound was determined according to the following equation: […]

[2] = target: GTPγS-bound human HRasG12V / human c-Raf-1 Ras binding domain (RBD) (Homo sapiens (Human), UniProt P01112, G12V); experiment: Ras-Raf binding inhibition ELISA
Protocol: The in vitro Ras-Raf binding inhibitory activity of the compound of the present invention was evaluated by an ELISA method (Enzyme-Linked ImmunoSorbent Assay) described below.
Ras and Raf used upon the evaluation were purified and activated by the following method.
Using a pGEX6P-1 vector (GE Healthcare), human HRasG12V (full length, 1-189 amino acid residues) and human c-Raf-1 Ras binding domain (RBD) (50-131 amino acid residues) were each allowed to express as a fusion body with glutathione S-transferase (GST) in E. coli.
GST-HRasG12V-expressing cells were subjected to ultrasonication in a buffer {50 mM Tris-HCl pH 7.4, 150 mM NaCl, 5 mM MgCl2, 1 mM ethylenediaminetetraacetic acid (EDTA), 1 mM dithiothreitol (DTT), 10% glycerol, and 1% Triton-X100}, and were then centrifuged at 100,000×g for 30 minutes, so as to collect the supernatant as a Ras protein fraction. HRasG12V in the supernatant was immobilized on a glutathione-agarose resin, and GST was then cleaved with PreScission Protease (GE Healthcare) for purification. The obtained HRasG12V was mixed with guanosine 5′-O-[gamma-thio]triphosphate trisodium salt (GTPTS) of 1000 times higher concentration at 30° C. for 1 hour, and thereafter, 20 mM MgCl2 (final concentration) was added to stop the reaction and collect the GTPgS-loaded HRasG12V as a product.
On the other hand, GST-c-Raf-1 RBD-expressing cells were subjected to ultrasonication in the same buffer as described above, and were then centrifuged at 100,000×g for 30 minutes, so as to collected the supernatant as a GST-c-Raf-1 RBD protein fraction.
The in vitro Ras-Raf binding inhibitory activity of the compound of the present invention was evaluated by an ELISA method described below.
GST-c-Raf-1 RBD diluted with a Ras-Raf binding buffer (50 mM Tris-HCl pH7.4, 150 mM NaCl, 5 mM MgCl2, 1 mM EDTA, and 1% Triton-X100) was added to each well of a glutathione-coated 96-well plate (Thermo Fisher Scientific.), and was incubated at 30° C. for 1 hour, to immobilize Raf on the well. The unbound free Raf was eliminated by washing the well with the Ras-Raf binding buffer three times. Subsequently, GTPTS-bound HRasG12V diluted with the Ras-Raf binding buffer and each compound solution (final DMSO concentration: 10%) were applied to each well, and the resulting mixture was then incubated at 30° C. for 1 hour, so that Ras and Raf were allowed to bind to each other. Thereafter, the plate was washed with the Ras-Raf binding buffer twice, and was then subjected to a blocking treatment at room temperature for 20 minutes, using TBS-Tween {10 mM Tris-HCl pH 7.4, 150 mM NaCl, and 0.05% (w/v) Tween-20}-5% (w/v) bovine serum albumin (BSA). After that, an anti-HRas antibody (C-20, Santa Cruz) or an anti-HRas antibody (259, Santa Cruz), which had been 1000 times diluted with TBS-Tween-5% BSA, was added to the reaction mixture, and incubated at room temperature for 1 hours. After the treatment with the primary antibody, the plate was washed with TBS-Tween-5% BSA three times, and a horseradish peroxidase-labeled secondary antibody against rabbit immunoglobulin G (GE Healthcare) of 1000 times diluted with TBS-Tween-5% BSA, was added to the plate, followed by incubation at room temperature for 1 hour. After the treatment with the secondary antibody, the plate was washed with TBS-Tween-5% BSA three times, and a substrate solution (TMB) was then added to the plate, followed by incubation at room temperature for 15 minutes for coloration. Finally, 2 M H2SO4 was added to stop color development (coloration reaction kit: Nacalai Tesque). The absorbance at 450 nm (OD450) was measured, so that the color intensity was quantified. Inhibition by the test compound was determined according to the following equation: […]
IC50 (*) in which the anti-HRas antibody (259, Santa Cruz) was used

[3] = tested on: promyelocytic leukemia cells HL60 (N-RasQ61L); experiment: Cell growth inhibition, suspension cells HL60; format: cell-based; conditions: Homo sapiens, HL-60, 72 hours; for inhibition at 10 µM: read-out: HL-60 (NRasQ61L) % inhibition at 10 μM (***); for inhibition at 1 µM: read-out: HL-60 (NRasQ61L) % inhibition at 1 μM; for inhibition at 3.2 µM: read-out: HL-60 (NRasQ61L) % inhibition at 3.2 μM (****)
Protocol: as §1, §2, §3

[4] = tested on: large bowel cancer cell SW620 (K-RasG12V); experiment: Cell growth inhibition, adherent cells SW620; format: cell-based; conditions: Homo sapiens, SW-620; 3.2 μM (***), 72 hours; read-out: SW620 (KRasG12V) % inhibition at 3.2 μM (***)
Protocol: as §1
(Case of adherent cells) The cells suspended in a medium containing 10% FBS (1 to 2×10^4 cells/well) were seeded on a 96-well plate, and were then cultured at 37° C. in the presence of […]. Thereafter, the medium was exchanged with a medium containing […], to which each compound solution (final DMSO concentration: […]) had been added, and the cells were then cultured at 37° C. in the presence of […] for 72 hours.
as §3

[5] = anti-HRas antibody C-20, read-out: ELISA IC50 (μM): 1st Ab_C-20
[6] = anti-HRas antibody 259 (*), read-out: ELISA IC50 (μM): 1st Ab_259 (*)

Sequence of GTPγS-bound human HRasG12V / human c-Raf-1 Ras binding domain (RBD) (P01112 whole entry G12V, the tested form may be a part): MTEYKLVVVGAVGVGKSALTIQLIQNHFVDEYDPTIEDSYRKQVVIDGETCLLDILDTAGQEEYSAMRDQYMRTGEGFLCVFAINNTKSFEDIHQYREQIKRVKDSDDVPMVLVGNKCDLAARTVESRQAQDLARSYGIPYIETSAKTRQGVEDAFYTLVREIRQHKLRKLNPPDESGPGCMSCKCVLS

SMILES: CC(=O)N1/C(=C\c2ccc3cc(CO)ccc3n2)C(=O)c2ccccc21 [Example 33, (Z)-1-acetyl-2-((6-(hydroxymeth-yl)quinolin-2-yl)-methylene)indolin-3-one]
- inhibition at 1 µM [1]: 94%
- IC50 [2, 5]: 3.1 µM

SMILES: CC(=O)N1/C(=C\c2ccc3cc(CN4CCOCC4)ccc3n2)C(=O)c2ccccc21 [Example 35, (Z)-1-acetyl-2-((6-(morpholino-methyl)quinolin-2-yl)methylene)-indolin-3-one]
- inhibition at 1 µM [1]: 40%
- IC50 [2, 5]: 2.6 µM

SMILES: CC(=O)N1/C(=C/c2nc(C(=O)N3CCOCC3)cs2)C(=O)c2ccccc21 [Example 55, (E)-1-acetyl-2-((4-(morpholine-4-carbonyl)thiazol-2-yl)methylene)-indolin-3-one]
- inhibition at 10 µM [3]: 96%
- inhibition at 10 µM [1]: 78%

SMILES: CC(=O)N1/C(=C\c2ccc3cc(C(=O)N4CCS(=O)(=O)CC4)ccc3n2)C(=O)c2ccccc21 [Example 60, (Z)-1-acetyl-2-((6-(1,1-dioxido-thiomorpholine-4-carbonyl)quinolin-2-yl)methylene)-indolin-3-one]
- inhibition at 10 µM [1]: 99%
- IC50 [2, 5]: 6 µM

SMILES: CC(=O)N1/C(=C\c2ccc(OS(C)(=O)=O)cn2)C(=O)c2ccccc21 [Example 61, (Z)-6-((1-acetyl-3-oxoindolin-2-ylidene)methyl)-pyridin-3-yl methanesulfonate]
- inhibition at 1 µM [1]: 35%
- IC50 [2, 5]: 2.7 µM

SMILES: CC(=O)N1/C(=C\c2ccc3cc(CN(C)C4CCOCC4)ccc3n2)C(=O)c2ccccc21 [Example 71, (Z)-1-acetyl-2-((6-((methyl(tetra-hydro-2H-pyran-4-yl)amino)meth-yl)quinolin-2-yl)-methylene)indolin-3-one]
- inhibition at 1 µM [3]: 41%
- inhibition at 10 µM [1]: 82%
- IC50 [2, 5]: 2.4 µM

SMILES: CC(=O)N1/C(=C\c2ccc3cc(CN4CCS(=O)(=O)CC4)ccc3n2)C(=O)c2ccccc21 [Example 107, (Z)-1-acetyl-2-((6-((1,1-dioxido-thiomorpholino)-methyl)quinolin-2-yl)methylene)-indolin-3-one]
- inhibition at 10 µM [3]: 82%
- inhibition at 10 µM [1]: 81%
- IC50 [2, 5]: 1.7 µM

SMILES: CC(=O)N1/C(=C\c2ccc3cc(C(=O)N4CCC(N5CCOCC5)CC4)ccc3n2)C(=O)c2ccccc21 [Example 115, (Z)-1-acetyl-2-((6-(4-morpholino-piperidine-1-carbonyl)quinolin-2-yl)methylene)-indolin-3-one]
- inhibition at 10 µM [1]: 98%
- IC50 [2, 5]: 11 µM

SMILES: COCCN1CCN(C(=O)c2ccc3nc(/C=C4/C(=O)c5ccccc5N4C(C)=O)ccc3c2)CC1 [Example 116, (Z)-1-acetyl-2-((6-(4-(2-methoxy-ethyl)piperazine-1-carbonyl)quinolin-2-yl)methylene)-indolin-3-one]
- inhibition at 10 µM [1]: 98%

SMILES: CC(=O)N1/C(=C\c2nc3cc(CNC4CCOCC4)ccc3s2)C(=O)c2ccccc21 [Example 132, (Z)-1-acetyl-2-((5-(((tetrahydro-2H-pyran-4-yl)-amino)methyl)-benzo[d]thiazol-2-yl)methylene)-indolin-3-one]
- inhibition at 1 µM [3]: 42%
- inhibition at 1 µM [1]: 38%
- IC50 [2, 6]: 1.2 µM

SMILES: CC(=O)N1/C(=C\c2ccc3cc(CNC4CCS(=O)(=O)CC4)ccc3n2)C(=O)c2ccccc21 [Example 133]
- inhibition at 10 µM [3]: 99%
- inhibition at 10 µM [1]: 80%
- IC50 [2, 6]: 1.8 µM

SMILES: CC(=O)N1/C(=C\c2cc(-c3ccccc3-c3ccccc3)c3cc(C(N)=O)ccc3n2)C(=O)c2ccccc21 [Example 141, (Z)-4-([1,1′-biphenyl]-2-yl)-2-((1-acetyl-3-oxo-indolin-2-ylidene)-methyl)quinoline-6-carboxamide]
- inhibition at 3.2 µM [3]: 94.6%
- inhibition at 1 µM [2]: 46.2%
- IC50 [2, 5]: 1.2 µM
- inhibition at 3.2 µM [4]: 91.3%

SMILES: CC(=O)N1/C(=C\c2cc(-c3ccccc3-c3ccccc3)c3cc(CNC4CCOCC4)ccc3n2)C(=O)c2ccccc21 [Example 143, (Z)-2-((4-([1,1′-biphenyl]-2-yl)-6-(((tetrahydro-2H-pyran-4-yl)amino)-methyl)quinolin-2-yl)methylene)-1-acetylindolin-3-one]
- inhibition at 3.2 µM [3]: 97.2%
- inhibition at 1 µM [2]: 44.3%
- IC50 [2, 5]: 0.6 µM
- inhibition at 3.2 µM [4]: 79.3%

SMILES: CC(=O)N1/C(=C\c2nc3ccc(C(=O)N4CCOCC4)cc3cc2-c2cnn(C)c2)C(=O)c2ccccc21 [Example 198, (Z)-1-acetyl-2-((3-(1-methyl-1H-pyrazol-4-yl)-6-(morpholine-4-carbonyl)quinolin-2-yl)methylene)-indolin-3-one]
- inhibition at 3.2 µM [3]: 75.1%
- inhibition at 3.2 µM [1]: 68.7%
- inhibition at 3.2 µM [4]: 30.4%

SMILES: CC(=O)N1/C(=C\c2nc3ccc(-c4nnn[nH]4)cc3cc2-c2cccc3ccccc23)C(=O)c2ccccc21 [Example 214, (Z)-1-acetyl-2-((3-(naphthalen-1-yl)-6-(1H-tetrazol-5-yl)quinolin-2-yl)methylene)-indolin-3-one]
- inhibition at 3.2 µM [3]: 36.7%
- inhibition at 3.2 µM [1]: 96%
- IC50 [2, 5]: 28.9 µM
- inhibition at 3.2 µM [4]: 92.2%
